Source: patent US9701667B2, “Coumarin-based fluorogenic agents and uses thereof for specific protein labelling” (UNIVERSITY OF OTTAWA, priority 2014, dated 2017)
Entries after “also recorded” stand apart in the source; their conditions may differ.

How the values were obtained:
histone H2B-dC10α [1] = assay: Intracellular labelling of histone H2B-dC10α in HeLa cells; type: cell-based, human; details: 10 μM YC20, 10 minutes
Procedure: HeLa cells were transfected with plasmid DNA encoding histone H2B-dC10α as described below and labelled with 10 μM YC20 for 10 minutes.
Transfection and labelling were performed as follows: HeLa cells were propagated for 2-3 weeks until the cells were stable and healthy for the transfection and labelling experiments. Cells were plated in 35 mm culture dishes (approx. 1.3×10^5 cells/plate in 2 mL of MEM or DMEM media) and incubated at 37° C. (5% CO2) for 12-16 h, after which they were transfected with the plasmid DNA encoding for the expression of histone H2B C-terminally tagged with dC10α, using 3-fold lipofectamine […] (H2B-dC10α and 6 μg of lipofectamine). For the transfections the media was changed from MEM/DMEM to OPTI-MEM and the transfection time was 45 min. The media was then changed back to MEM/DMEM and the cells were allowed to express protein for 48 h (37° C. and 5% CO2), after which the cells were treated with the corresponding fluorogen. For FlARe labelling, cells were treated with 10 μM of YC20 in 2 mL OPTI-MEM (containing 0.02% F127 and 0.2% DMSO) and incubated at 37° C. and 5% CO2 for 10 minutes.

HEK293T cells = assay: MTT cytotoxicity assay; type: cell-based, human; details: 20 h incubation
Procedure: 3-(4,5-Dimethylthiazol-2-yl)-2,5-diphenyl tetrazolium bromide (MTT) is a yellow tetrazolium salt and can be reduced to formazan crystals, which are insoluble in aqueous solutions, by active mitochondria in living cells. The resulting intracellular purple formazan can be dissolved in Triton X100, and therefore quantified by measuring absorption of the solution.
Cells were seeded in a 96-well plate and incubated with 100 μL of culture medium with different amounts of the fluorogen YCx for 16 h. No fluorogen was added to the positive control and no cells were plated in the negative control. Portions of 25 μL of MTT solution (5 mg in 1 mL of Hanks' balanced salt solution) were added to the wells and the cells were further incubated at 37° C. for 4 h. Solubilization solutions (100 μL) were then added and incubated in 96-well plates at room temperature in the dark overnight. The absorption of each well was measured using a plate reader at a wavelength of 570 nm with 690 nm as a reference. Cell viability was calculated according to the following equation: Cell viability=(Awith fluorogen−Anegative control)/(Apositive control−Anegative control).

[2] = Time-dependent fluorescence increase on reaction with GSH; details: 25 μM fluorogen, 1 mM GSH
Procedure: (§1) Reactivity was tested through the time-dependent fluorescence increase at 37° C. using Synergy H4 Hybrid Multi-Mode Microplate Reader with excitation and emission monochromators set to 9 nm bandpass. All reactions were prepared in 50 mM HEPES buffer (pH 7.4) with 5% DMSO. Solutions of MBP-dC10α or GSH were prepared in 96-well plates and labelling reagent (YCx) in DMSO was added immediately before recording. The final concentration of labelling reagent was 25 μM, the final concentration of MBP-dC10α was 25 μM and the final concentration of GSH was 50 μM or 1 mM in 50 mM HEPES buffer (pH 7.4) with 5% DMSO. Samples were excited at 440 nm and fluorescence intensity was followed at 485 nm as a function of time.

MBP-dC10α [3] = assay: Time-dependent fluorescence increase on reaction with test protein; type: biochemical; details: MBP-dC10 versus GSH
Procedure: as §1

dC10α-actin = target: T1, dC10α-actin (Homo sapiens, UniProt P60709); assay: No-wash intracellular labelling of dC10α-actin in HEK 293T cells; type: cell-based; details: 10 μM YC20, 45 min
T1 construct: expressed in transfected cells; host or cells: HEK 293T
Procedure: (§2) The no-wash fluorogenic labelling reagent YC20 was used to label cellular proteins localized in different parts of living HEK 293T cells. Histone-H2B, localized in the nuclei, and actin, localized as filaments in the cytosol, were chosen as the test proteins. […] HEK293T cells were transfected to express histone H2B-dC10α or dC10α-actin and then labeled with YC20 for 45 min and directly imaged by fluorescent microscopy without any washing steps (FIG. 13; see, also, Chen, Y. et al., Angew. Chem. Int. Ed. Engl., 2014, 53, 13785-13788, the entire contents of which are hereby incorporated by reference).
(§3) Transfection and labelling were performed as follows: HEK 293T cells were plated into 60-mm dishes and grown in MEM supplemented with 10% FBS, 100 units/mL of penicillin and 100 μg/mL of streptomycin for 16 h before transfection. Cells were transiently transfected with plasmid DNA encoding for dC10α-actin or histone H2B-dC10α or with pcDNA3.1 (mock) using lipofectamine 2000 following manufacturer's instructions. Twenty-four or forty-eight hours after transfection, the cells were incubated with 10 μM YC20 (in Opti-MEM with 0.2% DMSO) for 45 min at 37° C. Cells were observed and imaged on a Nikon confocal microscope with a 25× objective. Images were taken and analyzed with NIS-Elements software.

histone H2B-dC10α [4] = assay: No-wash intracellular labelling of histone H2B-dC10α in HEK 293T cells; type: cell-based, human; details: 10 μM YC20, 45 min
Procedure: as §2, §3

MBP-dC10α [5] = assay: Fluorescence properties and fluorescence enhancement (FE) before/after labelling of model target protein; type: biochemical
Procedure: For experiments described herein, maltose-binding protein (MBP) was chosen as a highly-soluble test protein and the dC10α tag was fused to its C-terminus (MBP-dC10α) as described previously (Guy, J. et al., Mol. Biosyst. 2010, 6, 976-987).
Emission spectra and fluorescence intensity measurements were recorded at 37° C. with a Synergy H4 Hybrid Multi-Mode Microplate Reader with excitation and emission monochromators set at 9 nm bandpass. The mixture of 100 μM solution of fluorogen (YCx) and 100 μM MBP-dC10 in 50 mM HEPES buffer (pH 7.4) with 5% DMSO was incubated at 37° C. in the dark for 12 hours, after which the fluorescence emission spectrum of a dilution (25 μM final) in 50 mM HEPES buffer with 5% DMSO was recorded. The emission spectra of the corresponding labelling reagent in same solution without MBP-dC10α were also recorded. The ratio of fluorescence intensity at maximum emission gave the fluorescence enhancement (FE) ratio.

Q: For `CCN(CC)c1ccc2cc(C(=O)Nc3cc(N4C(=O)C=C(OC)C4=O)cc(N4C(=O)C=C(OC)C4=O)c3)c(=O)oc2c1` [YC20, N-(3,5-bis(3-methoxy-2,5-dioxo-2,5-dihydro-1H-pyrrol-1-yl)phenyl)-7-(diethylamino)-2-oxo-2H-chromene-3-carboxamide], which “labelling of histone H2B-dC10α (cyan channel)” value (histone H2B-dC10α [1]) is on record?
A: The value was “nuclei were strongly fluorescently labeled”.

Q: And the “cytotoxicity (cell viability, MTT)” value (HEK293T cells)?
A: The value was “neither showed any cytotoxicity up to 100 μM”.

Q: And the “reaction with high concentration (large excess) of GSH” value [2]?
A: Its value is “extremely slow; also recorded: did not give any fluorescence signal”.

Q: What about the “selectivity of labelling target protein over GSH” value (MBP-dC10α [3]) of the same compound?
A: Its value is “most selective labelling reagent”.

Q: And the “fluorescence in pcDNA transfected (mock) cells” value (dC10α-actin; HEK 293T mock cells)?
A: The value was “negligible fluorescence”.

Q: And the “labelling of dC10α-actin (cyan channel)” value (dC10α-actin; HEK 293T)?
A: Its value is “filament structures in the cytosol were clearly visible”.

Q: And the “labelling of histone H2B-dC10α (cyan channel)” value (histone H2B-dC10α [4])?
A: The value was “only the nuclei were fluorescently labeled”.

Q: And the “fluorescence intensity change (fluorescence enhancement)” value (MBP-dC10α [5]; after labelling with MBP-dC10, λex = 440 nm)?
A: Its value is 29 fold.

Q: What about the “fluorescence after the labelling reaction” value (MBP-dC10α [5]; after reaction with MBP-dC10α) of the same compound?
A: Its value is “strong fluorescence”.

Q: What about the “background (intrinsic) fluorescence before labelling / quenching” value (MBP-dC10α [5]; fluorogen without target protein) of the same compound?
A: The value was “negligible background fluorescence”.
